Drawing on ChEMBL document CHEMBL4433263, “Tapping the therapeutic potential of protein tyrosine phosphatase 4A with small molecule inhibitors” (Bioorg Med Chem Lett, 2019), this text covers IC50 for three molecules.

In assay [1] the target is T1, Protein tyrosine phosphatase type IVA 1 (Homo sapiens, UniProt Q93096).
T1 sequence (Q93096 whole entry): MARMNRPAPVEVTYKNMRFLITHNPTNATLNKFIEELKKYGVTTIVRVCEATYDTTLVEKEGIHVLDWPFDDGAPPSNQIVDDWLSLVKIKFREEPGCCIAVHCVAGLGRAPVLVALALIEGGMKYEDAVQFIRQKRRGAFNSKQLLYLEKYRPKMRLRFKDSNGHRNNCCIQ
Briefly: Inhibition of PTP4A1 (unknown origin).

The target of assay [2] is T2, Protein tyrosine phosphatase type IVA 2 (Homo sapiens, UniProt Q12974).
T2 sequence (Q12974 whole entry): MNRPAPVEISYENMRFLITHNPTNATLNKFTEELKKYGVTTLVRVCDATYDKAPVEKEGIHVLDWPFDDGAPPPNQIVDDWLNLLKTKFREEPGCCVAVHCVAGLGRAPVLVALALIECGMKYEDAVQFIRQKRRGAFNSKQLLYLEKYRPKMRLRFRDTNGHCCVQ
Briefly: Inhibition of PTP4A2 (unknown origin).

For assay [3], the target named is Protein tyrosine phosphatase type IVA 3 (Homo sapiens, UniProt O75365). The assay is described as follows: Inhibition of PTP4A3 (unknown origin).
Protein tyrosine phosphatase type IVA 3, sequence (O75365 whole entry): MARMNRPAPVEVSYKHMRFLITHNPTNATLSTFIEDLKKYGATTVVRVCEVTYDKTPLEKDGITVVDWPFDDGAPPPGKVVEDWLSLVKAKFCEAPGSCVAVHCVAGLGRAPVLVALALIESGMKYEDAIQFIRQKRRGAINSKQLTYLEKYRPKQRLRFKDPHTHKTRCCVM
For assay [4], the target named is T3, Tyrosine-protein phosphatase non-receptor type 1 (Homo sapiens, UniProt P18031).
T3 sequence (P18031 whole entry): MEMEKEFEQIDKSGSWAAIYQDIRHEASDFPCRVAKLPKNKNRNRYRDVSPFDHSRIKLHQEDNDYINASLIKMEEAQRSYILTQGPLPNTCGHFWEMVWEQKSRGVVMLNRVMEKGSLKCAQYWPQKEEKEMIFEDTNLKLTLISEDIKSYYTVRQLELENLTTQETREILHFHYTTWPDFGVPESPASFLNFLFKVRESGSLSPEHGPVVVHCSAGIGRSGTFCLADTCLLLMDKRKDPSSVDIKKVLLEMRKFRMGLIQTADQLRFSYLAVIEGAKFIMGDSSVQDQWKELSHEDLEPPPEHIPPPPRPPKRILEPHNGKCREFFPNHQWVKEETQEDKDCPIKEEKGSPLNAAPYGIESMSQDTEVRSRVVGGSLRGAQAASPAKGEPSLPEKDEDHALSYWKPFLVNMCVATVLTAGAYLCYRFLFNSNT
Briefly: Inhibition of human PTP1B assessed as reduction in hydrolysis using DIFMUP as substrate incubated for 30 mins in presence of DTT by Fluorescence based method.

Where only a bound is given, the exact number is not on record here.

By IC50 is commonly meant the midpoint of a concentration-inhibition curve. As to `N=C(N)c1ccc(OCCCCCOc2ccc(C(=N)N)cc2)cc1` [PENTAMIDINE], the IC50 in assay [1], in assay [2] and in assay [3] was 300 nM in each case.
Consider `N=C1C(=O)NC(=O)c2cc(-c3ccccc3)sc21`, for which the IC50 in assay [4] is more than 80000 nM.
`Cc1cc2c(cc1C)CN(c1cccc(C(=O)N/N=C/c3ccc(C(=O)O)cc3)c1)C2` yielded a half-maximal inhibitory concentration (IC50) in assay [1] of more than 20000 nM.
